In US20230312583A1, “1H-IMIDAZO [4,5-H] QUINAZOLINE COMPOUND AS NOVEL SELECTIVE FLT3 INHIBITORS” (SHENGKE PHARMACEUTICALS (JIANGSU) LTD., priority 2020, published 2023):
pIC50: −log10 of the molar value.

Columns and labels:
Assay type in all cases: biochemical
Conditions in all cases: 10 μM ATP
CDK4/cyclin D1 = CDK4/cyclin D1 (Homo sapiens (Human), UniProt P11802); experiment: Radiometric 33P-ATP kinase inhibition assay, CDK4/cyclin
Description: (§1) Reactions were carried out in the presence of 10 μM ATP.
(§2) Procedures: • 1. Compounds were prepared in freshly prepared reaction buffers containing 20 mM HEPES (pH 7.5), 10 mM MgCl2, 1 mM EGTA, 0.01% Brij35, 0.02 mg/ml, BSA, 0.1 mM Na3VO4, 2 mM DTT, and 1% DMSO. • 2. […] Kinase such as 10 ng of recombinant CDK4/cyclin D1 (Life Technologies PV4204) diluted in a kinase buffer (20 mM Tris pH7.5, 10 mM MgCl2, 0.01% NP-40, 2 mM DTT), and incubated at room temperature for 30 minutes together with indicated concentration of inhibitors. • 4. Compounds in DMSO were added into the kinase reaction mixture utilizing acoustic technology (Echo550). • 5. 33P-ATP (specific activity 0.01 μCi/μl final) was added into the reaction mixture to initiate the reaction. • 6. The reaction mixture was incubated for 120 minutes at room temperature. • 7. […] Filters were extensively washed with 0.75% phosphoric acid. • 9. The radioactive phosphorylated substrate remaining on the filter paper was measured.
(§3) Kinase activity data were expressed as the percent remaining kinase activity in test samples compared to vehicle (dimethyl sulfoxide) reactions. IC50 values and curve fits were obtained using Prism4 Software (GraphPad).

CDK2/cyclin E = CDK2/cyclin E (Homo sapiens (Human), UniProt P24941); experiment: Radiometric 33P-ATP kinase inhibition assay, CDK2/cyclin E
Description: as §1, §2, §3

C-Klt = C-Klt (Homo sapiens (Human), UniProt P10721); experiment: Radiometric 33P-ATP kinase inhibition assay, C-Klt
Chain of C-Klt (P10721 26-976): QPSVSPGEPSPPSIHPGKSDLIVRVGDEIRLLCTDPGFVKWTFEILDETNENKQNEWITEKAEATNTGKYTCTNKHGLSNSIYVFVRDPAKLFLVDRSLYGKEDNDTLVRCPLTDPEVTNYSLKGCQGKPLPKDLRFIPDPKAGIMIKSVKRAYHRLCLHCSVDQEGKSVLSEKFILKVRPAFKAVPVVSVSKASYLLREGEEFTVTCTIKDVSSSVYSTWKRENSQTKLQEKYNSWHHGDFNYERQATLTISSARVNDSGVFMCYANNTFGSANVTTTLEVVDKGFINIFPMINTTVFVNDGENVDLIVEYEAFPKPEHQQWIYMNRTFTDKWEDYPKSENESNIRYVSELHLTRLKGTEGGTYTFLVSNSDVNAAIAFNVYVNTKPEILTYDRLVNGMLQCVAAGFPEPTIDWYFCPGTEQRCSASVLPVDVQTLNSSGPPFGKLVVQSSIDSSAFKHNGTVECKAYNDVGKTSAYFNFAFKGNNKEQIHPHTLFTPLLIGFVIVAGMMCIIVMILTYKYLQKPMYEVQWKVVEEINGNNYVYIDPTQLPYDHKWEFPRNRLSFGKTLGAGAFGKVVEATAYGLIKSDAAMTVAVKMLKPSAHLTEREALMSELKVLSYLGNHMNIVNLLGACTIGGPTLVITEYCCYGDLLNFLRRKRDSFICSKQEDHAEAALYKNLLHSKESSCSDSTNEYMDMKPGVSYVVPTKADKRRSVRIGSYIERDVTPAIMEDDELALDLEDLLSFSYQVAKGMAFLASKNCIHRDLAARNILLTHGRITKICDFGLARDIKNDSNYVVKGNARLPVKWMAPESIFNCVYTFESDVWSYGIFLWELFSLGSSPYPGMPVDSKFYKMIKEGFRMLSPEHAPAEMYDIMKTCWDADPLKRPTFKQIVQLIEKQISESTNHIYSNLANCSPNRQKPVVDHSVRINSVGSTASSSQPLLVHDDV
Description: as §1, §2, §3

CDK6/cyclin D1 = CDK6/cyclin D1 (Homo sapiens (Human), UniProt Q00534); experiment: Radiometric 33P-ATP kinase inhibition assay, CDK6/cyclin D1
Chain of CDK6/cyclin D1 (Q00534 whole entry, species assumed): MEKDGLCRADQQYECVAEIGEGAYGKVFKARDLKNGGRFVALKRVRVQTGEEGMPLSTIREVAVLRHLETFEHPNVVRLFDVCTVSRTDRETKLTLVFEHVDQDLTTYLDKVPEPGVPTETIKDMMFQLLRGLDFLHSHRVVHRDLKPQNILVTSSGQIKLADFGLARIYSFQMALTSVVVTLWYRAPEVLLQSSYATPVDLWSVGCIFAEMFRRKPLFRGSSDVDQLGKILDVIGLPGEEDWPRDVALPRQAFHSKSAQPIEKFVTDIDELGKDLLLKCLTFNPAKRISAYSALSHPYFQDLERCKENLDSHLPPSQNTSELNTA
Chain of CDK6/cyclin D1 (P24385 whole entry partner, species assumed): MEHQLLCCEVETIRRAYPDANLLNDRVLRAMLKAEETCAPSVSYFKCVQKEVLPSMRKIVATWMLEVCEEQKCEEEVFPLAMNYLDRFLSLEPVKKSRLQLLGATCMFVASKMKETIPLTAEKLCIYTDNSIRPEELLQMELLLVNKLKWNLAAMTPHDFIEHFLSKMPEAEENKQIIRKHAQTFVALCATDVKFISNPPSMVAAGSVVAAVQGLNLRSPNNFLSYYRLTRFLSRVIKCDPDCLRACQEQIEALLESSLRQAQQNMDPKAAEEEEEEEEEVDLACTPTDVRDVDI
Description: as §1, §2, §3

CDK1/cyclin B = CDK1/cyclin B (Homo sapiens (Human), UniProt P06493); experiment: Radiometric 33P-ATP kinase inhibition assay, CDK1/cyclin B
Chain of CDK1/cyclin B (P06493 whole entry, species assumed): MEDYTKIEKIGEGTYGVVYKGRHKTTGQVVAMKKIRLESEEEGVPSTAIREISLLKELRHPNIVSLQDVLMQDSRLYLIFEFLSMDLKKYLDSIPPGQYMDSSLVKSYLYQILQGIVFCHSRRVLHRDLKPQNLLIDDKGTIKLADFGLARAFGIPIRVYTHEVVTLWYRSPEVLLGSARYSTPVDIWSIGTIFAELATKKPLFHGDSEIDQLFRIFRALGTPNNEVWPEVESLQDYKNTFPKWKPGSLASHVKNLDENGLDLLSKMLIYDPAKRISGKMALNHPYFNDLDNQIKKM
Chain of CDK1/cyclin B (P14635 whole entry partner, species assumed): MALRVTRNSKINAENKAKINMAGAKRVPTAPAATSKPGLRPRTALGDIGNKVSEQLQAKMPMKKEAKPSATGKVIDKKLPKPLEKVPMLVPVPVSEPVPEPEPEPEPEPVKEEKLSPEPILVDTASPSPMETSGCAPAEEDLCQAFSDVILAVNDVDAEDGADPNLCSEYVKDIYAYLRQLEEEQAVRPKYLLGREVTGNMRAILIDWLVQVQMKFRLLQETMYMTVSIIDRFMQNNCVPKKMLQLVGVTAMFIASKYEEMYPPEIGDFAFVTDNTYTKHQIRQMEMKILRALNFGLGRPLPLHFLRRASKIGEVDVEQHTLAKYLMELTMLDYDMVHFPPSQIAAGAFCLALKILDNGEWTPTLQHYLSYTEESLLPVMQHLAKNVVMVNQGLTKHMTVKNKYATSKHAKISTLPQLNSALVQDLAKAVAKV
Description: as §1, §2, §3

Chain of CDK4/cyclin D1 (P11802 whole entry): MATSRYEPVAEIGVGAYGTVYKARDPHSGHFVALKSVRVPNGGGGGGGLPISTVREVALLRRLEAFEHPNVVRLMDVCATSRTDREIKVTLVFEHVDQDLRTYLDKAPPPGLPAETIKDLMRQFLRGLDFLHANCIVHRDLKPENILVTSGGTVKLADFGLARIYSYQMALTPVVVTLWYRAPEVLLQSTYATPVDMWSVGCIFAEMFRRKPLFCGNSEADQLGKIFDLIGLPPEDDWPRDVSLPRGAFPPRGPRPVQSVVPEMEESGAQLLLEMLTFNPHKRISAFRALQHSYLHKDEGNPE
Chain of CDK4/cyclin D1 (P24385 whole entry partner): as the sequence (P24385 whole entry partner, species assumed) above

SMILES: COc1cc(Nc2ncc3ccc4ncn(C(C)C)c4c3n2)ncc1N1CCN(C)CC1 [Compound I-1]
- pIC50 (CDK4/cyclin D1): 7.21
- pIC50 (CDK2/cyclin E): 6.72
- pIC50 (C-Klt): 7.49

SMILES: CCN1CCN(c2cnc(Nc3ncc4ccc5ncn(C(C)C)c5c4n3)cc2OC)CC1 [Compound I-2, N-(5-(4-ethylpiperazin-1-yl)-4-methoxypyridin-2-yl)-1-isopropyl-1H-imidazo[4,5-h]quinazolin-8-amine]
- pIC50 (CDK4/cyclin D1): 7.18
- pIC50 (CDK2/cyclin E): 6.79

SMILES: COc1cc(Nc2ncc3ccc4ncn(C(C)C)c4c3n2)ncc1N1CC2(COC2)C1 [Compound I-3]
- pIC50 (CDK4/cyclin D1): 6.73
- pIC50 (CDK2/cyclin E): 7.33
- pIC50 (C-Klt): 7.22

SMILES: COc1cc(Nc2ncc3ccc4ncn(C(C)C)c4c3n2)ncc1N1CC2(CNC2)C1 [Compound I-4]
- pIC50 (CDK4/cyclin D1): 7.28
- pIC50 (CDK2/cyclin E): 7.16
- pIC50 (C-Klt): 7.78

SMILES: COc1cc(Nc2ncc3ccc4ncn(C(C)C)c4c3n2)ncc1N1CCNC(C)(C)C1 [Compound I-5]
- pIC50 (CDK4/cyclin D1): 7.02
- pIC50 (CDK2/cyclin E): 6.32
- pIC50 (C-Klt): 7.59

SMILES: CNC1CN(c2cnc(Nc3ncc4ccc5ncn(C(C)C)c5c4n3)cc2OC)C1 [Compound I-6]
- pIC50 (CDK4/cyclin D1): 6.61
- pIC50 (CDK2/cyclin E): < 6.30
- pIC50 (C-Klt): 7.02

SMILES: CCOc1cc(Nc2ncc3ccc4ncn(C(C)C)c4c3n2)ncc1N1CCN(C)CC1 [Compound I-7]
- pIC50 (CDK4/cyclin D1): 7.00
- pIC50 (CDK2/cyclin E): < 6.30
- pIC50 (C-Klt): 7.50

SMILES: CCOc1cc(Nc2ncc3ccc4ncn(C(C)C)c4c3n2)ncc1N1CCOCC1 [Compound I-8]
- pIC50 (CDK4/cyclin D1): < 6.30
- pIC50 (CDK2/cyclin E): < 6.30
- pIC50 (C-Klt): 7.05

SMILES: CC(C)n1cnc2ccc3cnc(Nc4cc(OCCF)c(N5CC6CC(C5)N6)cn4)nc3c21 [Compound I-9]
- pIC50 (CDK6/cyclin D1): 7.65
- pIC50 (CDK4/cyclin D1): 7.40
- pIC50 (CDK2/cyclin E): 7.04
- pIC50 (C-Klt): 7.82

SMILES: CC(C)n1cnc2ccc3cnc(Nc4cc(OCC5CC5)c(N5CCNCC5)cn4)nc3c21 [Compound I-10]
- pIC50 (CDK4/cyclin D1): 6.53
- pIC50 (CDK1/cyclin B): 6.35
- pIC50 (CDK2/cyclin E): < 6.30
- pIC50 (C-Klt): 6.95

SMILES: COc1cc(Nc2ncc3ccc4ncn(C(C)C)c4c3n2)ncc1N1C2CCC1CNC2 [Compound I-11]
- pIC50 (CDK4/cyclin D1): 7.01
- pIC50 (CDK2/cyclin E): < 6.30
- pIC50 (C-Klt): 7.53

SMILES: COc1cc(Nc2ncc3ccc4ncn(C(C)C)c4c3n2)ncc1N1CC2CCC1CN2 (stereo not shown) [Compound I-12]
- pIC50 (CDK4/cyclin D1): 7.18
- pIC50 (CDK2/cyclin E): 6.52
- pIC50 (C-Klt): 7.82

SMILES: CC#CCOc1cc(Nc2ncc3ccc4ncn(C(C)C)c4c3n2)ncc1N1CCNCC1 [Compound I-13]
- pIC50 (CDK4/cyclin D1): 6.96

SMILES: CC(C)n1cnc2ccc3cnc(Nc4cc(Oc5ccccc5)c(N5CCNCC5)cn4)nc3c21 [Compound I-14]
- pIC50 (CDK4/cyclin D1): 7.34
- pIC50 (CDK2/cyclin E): 6.36
- pIC50 (C-Klt): 7.15

SMILES: COc1cc(Nc2ncc3ccc4ncn(C(C)C)c4c3n2)ncc1NCC1COC(=O)N1C (stereo not shown) [Compound I-15]
- pIC50 (CDK4/cyclin D1): 6.57
- pIC50 (CDK2/cyclin E): < 6.30
- pIC50 (C-Klt): 6.93

SMILES: CCOc1cc(Nc2ncc3ccc4ncn(CC)c4c3n2)ncc1N1CCN(CC)CC1 [Compound V-1, N-(4-ethoxy-5-(4-ethylpiperazin-1-yl)pyridin-2-yl)-1-ethyl-1H-imidazo[4,5-h]quinazolin-8-amine]
- pIC50 (CDK4/cyclin D1): 6.66
- pIC50 (C-Klt): 7.67

SMILES: COc1cc(Nc2ncc3cc(C)c4ncn(C(C)C)c4c3n2)ccc1N1CCOCC1 [II-1, 1-isopropyl-N-(3-methoxy-4-morpholinophenyl)-4-methyl-1H-imidazo[4,5-h]quinazolin-8-amine]
- pIC50 (C-Klt): 7.12

SMILES: CC(C)Oc1cc(Nc2ncc3ccc4ncn(C)c4c3n2)ncc1N1CCNCC1 [IV-1, N-(4-isopropoxy-5-(piperazin-1-yl)pyridin-2-yl)-1-methyl-1H-imidazo[4,5-h]quinazolin-8-amine]
- pIC50 (C-Klt): 6.86

SMILES: COc1cc(Nc2ncc3ccc4nc(C)n(C(C)C)c4c3n2)ncc1N1CCOCC1 [VI-1, 1-isopropyl-N-(4-methoxy-5-morpholinopyridin-2-yl)-2-methyl-1H-imidazo[4,5-h]quinazolin-8-amine]
- pIC50 (CDK4/cyclin D1): 6.61
- pIC50 (CDK1/cyclin B): 6.40
- pIC50 (CDK2/cyclin E): 7.05
- pIC50 (C-Klt): 7.34
